Patent US8809386B2, “Use of dynamin ring stabilizers” (Children's Medical Research Institute, priority 2009, dated 2014)

Assays:
native brain dynamin I = native brain dynamin I (Ovis aries, UniProt A0ACI6NZN1); assay: PS liposome-stimulated (helical) dynamin I GTPase activity, inhibition; type: biochemical, sheep; settings: 5 μM, increasing dynamin concentrations, FIG. 1
Experimental: Each of the dyngo compounds was synthesized by a simple one-step condensation reaction coupling 3-hydroxy-2-naphthoic acid hydrazide with a variety of hydroxyl substituted benzaldehydes affording a focussed library as illustrated by Scheme 1 below (e.g., by mixing the reagents in ethanol (e.g., 10 ml) in a round bottomed flask, refluxing the mixture for 2 hours, allowing it to cool and removing the solvent in vacuo prior to recrystallizing the product from ethanol although other synthesis methods available).
Among the various classes of dynamin inhibitors are subsets of dynamin ring stabilizers.

[1] = system: truncated dynamin I construct known as GG2; assay: Basal GTPase activity of assembly-incompetent dynamin construct GG2; type: biochemical; settings: FIG. 5
From the text: FIG. 5 is a graph showing the basal GTPase activity of the truncated dynamin I construct known as GG2, containing only the GTPase domain linked to a small part of the GED domain (Chappie et al 2009). Unlike full length dynamin this construct is known to be unable to self-assemble or to form rings. Bis-T-22 and -23 and imminodyn-22 have no effect on the basal activity of this assembly-incompetent construct.
To verify that ring stabilizers require dynamin oligomerisation, a recombinant form of dynamin, called GG-2, which is dimeric yet is unable to self-associate into higher order oligomers (Chappie et al 2009) was tested. Ring stabilizers are unable to stimulate the basal activity of such constructs (FIG. 5).

dynamin = assay: Electron microscopy of helical dynamin on PS liposomes; type: biochemical; settings: 5 μM, FIG. 8
From the text: FIGS. 8 (A) to (D) are electron micrographs showing Bis-T-23 prevents constriction or helical expansion of dynamin on PS liposomes in vitro. It stabilizes the dynamin helix, which loses its flexibility and forms uniform diameter rings, inhibiting dynamin ring disassembly.
A characteristic of helical dynamin is that the helix is a highly flexible structure. Upon GTP hydrolysis it is able to rapidly reduce its diameter (constriction) while also expanding in length (helical expansion) (Stowell et al. 1999; Chen et al. 2004; Roux et al. 2006). This is thought to be a potential mechanism utilized for the fission of the necks of newly budded endocytic vesicles in cells (Roux et al. 2006). The highly flexible nature of helical dynamin was confirmed by EM analysis of dynamin bound to phosphatidylserine liposomes in the absence of GTP or GDP (FIG. 8). Dynamin mixed with PS liposomes formed a helix with specific characteristics (FIGS. 8A and C): the individual loops of the helix were highly varied in diameter, formed at different angles relative to the underlying lipid, and the spacing between loops was highly variable. […] Bis-T-23 bound dynamin appeared similar to previous reports of GTPγS-bound dynamin on lipid nanotubes (Stowell et al. 1999).

[2] = system: mouse expressing ‘gain of function’ α-actinin 4 mutant protein; assay: Proteinuria in mouse expressing gain of function α-actinin 4 mutant; type: in vivo; settings: IP, 166 μg/100 g body weight, up to 6 hours after administration, FIG. 20
Experimental: FIG. […] Proteinuria was measured using mouse Albumin-specific ELISA and Creatinine Companion assay kits (Exocell and Bethyl Laboratories) following manufacturer's protocols.
Mice expressing a ‘gain of function’ mutation in the ACTN4 gene encoding for α-actinin 4 has been fully characterized (Kaplan et al. 2000; Henderson et al. 2008; Yao et al. 2004). These animals develop FP effacement and proteinuria due to “hyper bundling” activity of α-actinin 4 mutant that induces aggregation of stress fibers. Proteinuria develops at 4-6 weeks of age. The animals used in the present study were obtained from Dr. Martin Pollak, Brigham and Women's Hospital, Boston, Mass., USA. Proteinuric phenotype was confirmed by determination of urinary albumin and creatinine using mouse Albumin-specific ELISA and Creatinine Companion assay kits (Exocell and Bethyl Laboratories) following the manufacturer's protocols. The control animal was a litermate. Bis-T-23 was dissolved in 100% DMSO to make a 10 μg/μl stock solution, of which 5 μl was diluted in 200 μl of 1×PBS, and this was injected intraperitoneally (IP) into the test animal (166 μg/100 g body weight) at time 0 hr. Protein levels in the urine were measured every 2 hours post injection.

full length dynamin I = target: T1, full length dynamin I (UniProt Q05193); assay: Basal dynamin GTPase activity in the absence of PS liposomes or other template (ring stabilizer activity); type: biochemical, sheep; settings: 0.2 μM dyn1, 7 μM compound, 10 μM Gsn-F-actin complexes, FIG. 18
T1 construct: rows headed: basal rate of GTP hydrolysis of dynamin
T1 sequence (Q05193 1-864): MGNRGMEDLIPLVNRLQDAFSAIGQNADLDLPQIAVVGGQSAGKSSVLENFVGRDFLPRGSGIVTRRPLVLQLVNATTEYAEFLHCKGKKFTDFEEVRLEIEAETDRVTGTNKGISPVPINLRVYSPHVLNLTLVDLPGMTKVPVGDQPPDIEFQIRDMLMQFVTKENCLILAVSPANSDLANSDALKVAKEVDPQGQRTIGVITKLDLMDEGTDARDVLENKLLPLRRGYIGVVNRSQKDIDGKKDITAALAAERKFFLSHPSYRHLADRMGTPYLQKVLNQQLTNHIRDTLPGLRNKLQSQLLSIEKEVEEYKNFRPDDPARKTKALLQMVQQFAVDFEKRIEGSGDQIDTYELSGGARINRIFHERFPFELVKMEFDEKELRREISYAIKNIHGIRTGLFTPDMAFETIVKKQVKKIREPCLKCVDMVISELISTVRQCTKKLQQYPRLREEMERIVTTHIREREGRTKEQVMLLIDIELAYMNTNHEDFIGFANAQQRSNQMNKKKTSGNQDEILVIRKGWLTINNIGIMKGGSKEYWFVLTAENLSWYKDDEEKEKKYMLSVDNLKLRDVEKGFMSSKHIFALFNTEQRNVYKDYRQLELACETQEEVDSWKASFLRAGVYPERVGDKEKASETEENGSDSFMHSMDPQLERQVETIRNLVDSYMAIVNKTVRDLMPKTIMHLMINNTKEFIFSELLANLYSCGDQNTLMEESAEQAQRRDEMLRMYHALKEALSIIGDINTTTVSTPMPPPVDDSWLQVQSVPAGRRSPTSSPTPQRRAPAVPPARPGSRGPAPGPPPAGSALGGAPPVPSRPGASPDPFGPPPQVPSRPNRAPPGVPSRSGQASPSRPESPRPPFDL

Chain of native brain dynamin I (A0ACI6NZN1 entry or part of it): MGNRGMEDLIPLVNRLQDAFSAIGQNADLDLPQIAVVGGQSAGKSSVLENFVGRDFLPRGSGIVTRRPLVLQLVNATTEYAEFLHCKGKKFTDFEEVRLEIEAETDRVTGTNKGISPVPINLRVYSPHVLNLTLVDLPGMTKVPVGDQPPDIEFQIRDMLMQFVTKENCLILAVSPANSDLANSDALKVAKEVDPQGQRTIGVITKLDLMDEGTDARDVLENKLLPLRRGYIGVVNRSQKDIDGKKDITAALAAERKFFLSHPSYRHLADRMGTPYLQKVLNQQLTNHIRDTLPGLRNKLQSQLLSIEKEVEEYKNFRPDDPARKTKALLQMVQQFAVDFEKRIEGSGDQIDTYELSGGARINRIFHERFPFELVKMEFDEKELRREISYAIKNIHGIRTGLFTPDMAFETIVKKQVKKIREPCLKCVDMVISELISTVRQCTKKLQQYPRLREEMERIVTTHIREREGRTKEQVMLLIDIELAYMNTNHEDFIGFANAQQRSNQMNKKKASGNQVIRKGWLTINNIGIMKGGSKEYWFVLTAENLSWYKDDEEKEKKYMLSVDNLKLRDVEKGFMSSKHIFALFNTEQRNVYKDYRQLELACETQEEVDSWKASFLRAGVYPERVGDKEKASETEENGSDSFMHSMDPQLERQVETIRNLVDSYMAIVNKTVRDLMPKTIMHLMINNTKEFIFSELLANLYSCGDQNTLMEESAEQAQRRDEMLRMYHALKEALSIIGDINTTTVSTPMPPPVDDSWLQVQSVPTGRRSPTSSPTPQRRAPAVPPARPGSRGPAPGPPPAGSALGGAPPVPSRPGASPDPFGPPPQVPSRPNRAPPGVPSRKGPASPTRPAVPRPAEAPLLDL

SMILES: N#CC(=Cc1cc(O)c(O)c(O)c1)C(=O)NCCCNC(=O)C(C#N)=Cc1cc(O)c(O)c(O)c1 [Bis-T-23, 2-cyano-N-{3-[2-cyano-3-(3,4,5-trihydroxyphenyl)-acryloylamino]-propyl}-3-(3,4,5-trihydroxyphenyl)-acrylamide]
- inhibition of liposome-stimulated dynamin GTPase activity (native brain dynamin I): potently inhibits dynamin at all points
- effect on basal GTPase activity of GG2 [1]: no effect
- shape of dynamin helix on PS liposomes (dynamin): drastically altered the helical shape
- proteinuria (urinary albumin and creatinine) [2]: decrease in proteinuria to wild-type levels
- basal rate of GTP hydrolysis of dynamin (full length dynamin I): increased the rate of basal dynamin GTP hydrolysis to a similar level to addition of Gsn-F-actin complexes
